The values that follow come from ChEMBL document CHEMBL2380277, “A new synthesis of 4'-resveratrol esters and evaluation of the potential for anti-depressant activity” (Bioorg Med Chem Lett, 2013).

One series relates to HL-60. The experiment in a line: Cytotoxicity against human HL60 cells. It is filed as functional. The following applies: read-out: ED50 (the source's name).
Series [1] is described as follows: Half life in human. It is filed as ADME, organism-based. The note with it: in vivo.
The test system of series [2] is Rattus norvegicus. Nature of the series: Toxicity in Long-Evans rat assessed as water intake at 20 mg/kg, sc measured after 20 to 21 days (reference value: 50.7 +/- 3.5 mL). In kind it is organism-based. Also noted: dose 20 mg/kg, route subcutaneous. The following applies: in vivo.
Series [3] relates to Rattus norvegicus. Nature of the series: Toxicity in Long-Evans rat assessed as food intake at 90 mg/kg, sc measured after 8 to 9 days (reference value: 33.1 +/- 1.5 g). In kind it is organism-based. Also noted: dose 90 mg/kg, route subcutaneous. The following applies: in vivo.
In series [4] the test system is Rattus norvegicus. Nature of the series: Toxicity in Long-Evans rat assessed as white adipose tissue weight at 20 to 90 mg/kg, sc measured after 21 days. It is filed as organism-based. The following applies: in vivo, 504 h. On the set-up: dose 20-90 mg/kg, route subcutaneous.
The subject of series [5] is Rattus norvegicus. Nature of the series: Antidepressant activity in Long-Evans rat assessed as mobile index at 90 mg/kg, sc administered 21 days measured for 6 mins by Porsalt forced-swim test (reference value: 286 +/- 8.7 secs). In kind it is functional. The note with it: route subcutaneous.
For series [6], the system named is Rattus norvegicus. The experiment in a line: Toxicity in Long-Evans rat assessed as water intake at 20 mg/kg, sc measured after 8 to 9 days (reference value: 53.3 +/- 2.7 mL). In kind it is organism-based. On the set-up: dose 20 mg/kg, route subcutaneous. The note with it: in vivo.
In series [7] the test system is Rattus norvegicus. The experiment in a line: Antidepressant activity in Long-Evans rat assessed as effect on number of boli excreted at 20 to 90 mg/kg, sc administered 21 days measured for 6 mins by Porsalt forced-swim test relative to vehicle-treated control. In kind it is functional, organism-based.
Series [8] relates to Rattus norvegicus. Nature of the series: Toxicity in Long-Evans rat assessed as food intake at 20 mg/kg, sc measured after 8 to 9 days (reference value: 33.1 +/- 1.5 g). In kind it is organism-based. Also noted: dose 20 mg/kg, route subcutaneous. The note with it: in vivo.
Series [9] deals with Rattus norvegicus. Nature of the series: Toxicity in Long-Evans rat assessed as change in estrous cycle pattern at 20 to 90 mg/kg, sc measured for 8 days by vaginal histological analysis. In kind it is organism-based. On the set-up: dose 20-90 mg/kg, route subcutaneous. The following applies: in vivo, 192 h.
Series [10] concerns Rattus norvegicus. The experiment in a line: Antidepressant activity in Long-Evans rat assessed as mobile index at 20 mg/kg, sc administered 21 days measured for 6 mins by Porsalt forced-swim test (reference value: 286 +/- 8.7 secs). In kind it is functional. The note with it: route subcutaneous.
The subject of series [11] is Rattus norvegicus. Nature of the series: Toxicity in Long-Evans rat assessed as water intake at 90 mg/kg, sc measured after 20 to 21 days (reference value: 50.7 +/- 3.5 mL). It is filed as organism-based. Also noted: dose 90 mg/kg, route subcutaneous. The note with it: in vivo.
Series [12] has as its system Rattus norvegicus. Nature of the series: Toxicity in Long-Evans rat assessed as water intake at 90 mg/kg, sc measured after 8 to 9 days (reference value: 53.3 +/- 2.7 mL). In kind it is organism-based. The following applies: in vivo. Also noted: dose 90 mg/kg, route subcutaneous.
The subject of series [13] is Rattus norvegicus. The experiment in a line: Toxicity in Long-Evans rat assessed as white adipose tissue weight/body weight ratio at 20 to 90 mg/kg, sc measured after 21 days. It is filed as organism-based. Also noted: dose 20-90 mg/kg, route subcutaneous. The following applies: in vivo, 504 h.
The subject of series [14] is Rattus norvegicus. Nature of the series: Toxicity in Long-Evans rat assessed as food intake at 90 mg/kg, sc measured after 20 to 21 days (reference value: 33.8 +/- 1.8 g). Also noted: dose 90 mg/kg, route subcutaneous. It is filed as organism-based. The following applies: in vivo.
For series [15], the system named is Rattus norvegicus. Nature of the series: Antidepressant activity in Long-Evans rat assessed as effect on swim speed at 20 to 90 mg/kg, sc administered 21 days measured for 6 mins by Porsalt forced-swim test relative to vehicle-treated control. In kind it is functional, organism-based.
Series [16] deals with Rattus norvegicus. The experiment in a line: Antidepressant activity in Long-Evans rat assessed as effect on dives at 20 to 90 mg/kg, sc administered 21 days measured for 6 mins by Porsalt forced-swim test relative to vehicle-treated control. In kind it is functional, organism-based.
The test system of series [17] is Rattus norvegicus. The experiment in a line: Antidepressant activity in Long-Evans rat assessed as effect on inverts at 20 to 90 mg/kg, sc administered 21 days measured for 6 mins by Porsalt forced-swim test relative to vehicle-treated control. It is filed as functional, organism-based.
Series [18] has as its system Rattus norvegicus. The experiment in a line: Toxicity in Long-Evans rat assessed as hypothalamic aromatase level at 20 mg/kg, sc measured per mg of protein measured for 21 days (reference value: 60 +/- 6.1 pmol/hr). Also noted: dose 20 mg/kg, route subcutaneous. The note with it: in vivo, 504 h. In kind it is organism-based.
Series [19] deals with Rattus norvegicus. The experiment in a line: Toxicity in Long-Evans rat assessed as food intake at 20 mg/kg, sc measured after 20 to 21 days (reference value: 33.8 +/- 1.8 g). It is filed as organism-based. On the set-up: dose 20 mg/kg, route subcutaneous. The note with it: in vivo.
Series [20] has as its system Rattus norvegicus. Nature of the series: Toxicity in Long-Evans rat assessed as hypothalamic aromatase level at 90 mg/kg, sc measured per mg of protein measured for 21 days (reference value: 60 +/- 6.1 pmol/hr). It is filed as organism-based. On the set-up: dose 90 mg/kg, route subcutaneous. The following applies: in vivo, 504 h.

The source made the active and inactive calls. No cut-off for these calls is given here.

Regarding `Oc1ccc(/C=C/c2cc(O)cc(O)c2)cc1` [RESVERATROL], the EC50 in the series on HL-60 was 22 µM. In series [1], the half-life came out at 30 min.

In the case of `CC(=O)Oc1ccc(/C=C/c2cc(O)cc(O)c2)cc1`, the Activity is 50.9 mL in the series with Rattus norvegicus [2]; 35.2 g in the series with Rattus norvegicus [3]; 6.6 g with Rattus norvegicus [4]; 52.1 mL in the series on Rattus norvegicus [6]; 34.3 g in the series on Rattus norvegicus [8]; “Non-toxic” with Rattus norvegicus [9]. Also, the Activity in the series on Rattus norvegicus [11] was 55.8 mL; in the series on Rattus norvegicus [12], 56.7 mL; in the series with Rattus norvegicus [14] it was 36.9 g; in the series on Rattus norvegicus [18], 71 pmol/h; in the series on Rattus norvegicus [19] it was 35.2 g; in the series on Rattus norvegicus [20] it was 73 pmol/h. Moreover, the Time worked out at 319 s in the series on Rattus norvegicus [5] and 312 s in the series on Rattus norvegicus [10]. Moreover, the EC50 with HL-60 is 17 µM. Further, the outcome with Rattus norvegicus [7], in the series with Rattus norvegicus [15], in the series with Rattus norvegicus [16] and in the series on Rattus norvegicus [17] was Active. Further, in the series with Rattus norvegicus [13], the Ratio came out at 2.4.

In general, half-life refers to how long it takes for the measured level to halve. A lower half-life goes with rapid decline.
